Reference: US8206707B2, “Combination therapy for the treatment of ocular neovascular disorders” (Ophthotech Corporation, priority 2004, dated 2012)
Entries after “also recorded” stand apart in the source; their conditions may differ.

What was measured:
[1] = system: corneal neovascularization; assay: Corneal neovascularization (corneal NV) model, Example 1; assay type: in vivo, C57BL/6 mice; conditions: mice; pegaptanib 25 mg/kg i.p. twice a day, Gleevec 50 mg/kg gavage twice a day; treated day 7-14, read day 14; FIG. 5
[2] = system: choroidal neovascularization; assay: Laser-induced choroidal neovascularization (CNV) model, Example 2; assay type: in vivo, C57BL/6 mice; conditions: treated 7 days from day 7; for decrease in CNV area compared to control eyes: experiment with Gleevec (50 mg/kg gavage twice a day) and pegaptanib 25 mg/kg i.p. twice a day
Protocol: Experimental CNV is often used as a model for Age-related Macular degeneration (AMD). In this model, vessels of the choroid grow through breaks in Bruch's membrane and into the retina, similar to what is observed in AMD patients. To induce experimental CNV, male C57BL/6 mice (18-20 g; Charles River, Wilmington, Mass.) were anesthetized with intramuscular ketamine hydrochloride (25 mg/kg) and xylazine (10 mg/kg) and the pupils were dilated with 1% tropicamide. Four burns were generated using diode laser photocoagulation (75-μm spot size, 0.1-second duration, 90 mW, Oculight SL laser, IRIDEX, Mountain View, Calif.) and a hand-held cover slide as a contact lens. Burns localized to the 3, 6, 9 and 12 o'clock positions of the posterior pole of the retina. Production of a bubble at the time of laser, which indicates rupture of Bruch's membrane, is an important factor in obtaining choroidal neovascularization, so only mice in which a bubble was produced for all four burns were included in the study. […] In experiments using APB5 (an anti-mouse PDGFRb (CD140b) antibody (anti-PDGF agent) from eBioscience, San Diego, Calif.), 5 mg/kg of antibody was administered using intra-peritoneal injections of twice a day. The area of choroidal NV lesions was measured in flat-mounted choroid stained with PECAM. Flat-mounts were examined by fluorescence microscopy and quantified using Openlab software.

[3] = system: developing vessels of the retina; assay: Neonatal mouse model, developing vessels of the retina, Example 3; assay type: in vivo, Neonatal C57BL/6 mice; conditions: for effect on blood vessels of the developing retina (growth, morphology): 100 μg of each agent i.p. daily from P0, eyes taken at P4, versus control non-treated retina, FIG. 10
Excerpt: The effect of administering pegaptanib sodium (Macugen™), and ARC-127 (Archemix Corp., Cambridge, Mass.), a PEGylated, anti-PDGF aptamer having the sequence […] […] […] GT (SEQ ID NO: 23, which corresponds to SEQ ID NO: 146 from U.S. Pat. No. 6,582,918, incorporated herein by reference in its entirety) having 2′-fluoro-2′-deoxyuridine at positions 6, 20 and 30, 2′-fluoro-2′-deoxycytidine at positions 8, 21, 28, and 29, 2′-O -Methyl-2′-deoxyguanosine at positions 9, 15, 17, and 31, 2′-O-Methyl-2′-deoxyadenosine at position 22, “N” in positions 10 and 23 from a hexaethylene-glycol phosphoramidite, and an inverted orientation T (i.e., 3′-3′-linked) at position 32, or both on the developing vessels of the retina was investigated. Neonatal C57BL/6 mice were injected daily (in the intra-peritoneal cavity) with 100 μg of ARC-127 or 100 μg of Macugen or both, starting on postnatal day 0 (P0). Mice eyes were enucleated at P4. The retinal vasculature was visualized in flatmounted retinas by immunostaining with PECAM and NG-2 or by perfusion with ConA-FITC and analyzed by fluorescence microscopy.

[4] = system: corneal neovascularization; assay: Corneal NV regression, anti-VEGF aptamer and anti-PDGF aptamer, Example 6; assay type: in vivo, C57BL/6 mice; conditions: pegaptanib 25 mg/kg i.p. twice a day, ARC-127 50 mg/kg once a day; treated day 10-20, read day 20; FIGS. 11, 12
Protocol: (§1) Corneal Neovascularization is a widely used animal model that allows clear visualization of abnormal vascular growth in the eye. The vessels that grow into the normally avascular cornea, can become well established, making this an attractive model to study vessel regression. To induce experimental corneal NV, male C57BL/6 mice (18-20 g; Charles River, Wilmington, Mass.) were anesthetized with intramuscular ketamine hydrochloride (25 mg/kg) and xylazine (10 mg/kg). NaOH (2 ul of 0.2 mM) was applied topically. The corneal and limbal epithelia were removed by applying a rotary motion parallel to the limbus using #21 blade (Feather, Osaka, Japan). […] Corneal NV was visualized using fluorescence microscopy and quantified using Openlab software. The percent of cornea covered by vessels was calculated as a percentage of total corneal area.
The corneal NV model of Example 1 was used to investigate the combination of an anti-VEGF aptamer and anti-PDGF aptamer. […] Corneal NV was visualized using CD31 staining (BD Biosciences Pharmingen, San Diego, Calif.) and quantified using Metamorph software. The percent of cornea covered by vessels was calculated as a percentage of total corneal area.

[5] = system: corneal neovascularization; assay: Corneal NV regression, anti-VEGF aptamer and antibody against PDGFB receptor, Example 7; assay type: in vivo, C57BL/6 mice; conditions: pegaptanib 25 mg/kg i.p. twice a day, APB5 50 mg/kg by gavage twice a day; treated day 14-28, read day 28; FIG. 13
Protocol: as §1
The corneal NV model of Example 1 was used to investigate the combination of an anti-VEGF aptamer and an antibody against the PDGFB receptor. […] Corneal NV was visualized using fluorescence microscopy and quantified using Openlab software. The percent of cornea covered by vessels was calculated as a percentage of total corneal area.

[6] = system: corneal neovascularization; assay: Corneal NV regression, order of addition of therapeutic agent, Example 8; assay type: in vivo, C57BL/6 mice; conditions: APB5 from day 14-21, pegaptanib sodium from day 21-28; read day 28; FIG. 14
Protocol: as §1
The corneal NV model of Example 1 was used to investigate the effect of order of addition of the combination therapy using an anti-VEGF aptamer and an antibody against the PDGFB receptor. […] Corneal NV was visualized using fluorescence microscopy and quantified using Openlab software. The percent of cornea covered by vessels was calculated as a percentage of total corneal area and the results are depicted in FIG. 14.

| Molecule | decrease in vessel growth (percent of cornea covered by vessels) as compared to untreated controls and Gleevec treated eyes [1] | decrease in CNV area compared to control ([2]; experiment with APB5 (5 mg/kg i.p. twice a day) and pegaptanib 25 mg/kg i.p. twice a day) | decrease in CNV area compared to control eyes [2] | effect on blood vessels of the developing retina (growth, morphology) ([3]; listed as Macugen) | decrease in vessel growth (percent of cornea covered by vessels) as compared to day 20 controls [4] | decrease in vessel growth (percent of cornea covered by vessels) as compared to control [5] | regression of corneal neovascularization, less neovascular growth as compared to control [6] | mural cell recruitment to the developing vessels of the retina ([3]; 100 μg i.p. daily from P0, eyes taken at P4) | effect on blood vessels of the developing retina (growth, morphology) [3] |
| --- | --- | --- | --- | --- | --- | --- | --- | --- | --- |
| pegaptanib sodium | 19.6% | 24% | 27% | did not interfere; also recorded: no effect | 13.81% | 8.3% | little effect |  |  |
| ARC-127: PEGylated, anti-PDGF aptamer (Archemix Corp.), sequence CAGGCUACGNCGTAGAGCAUCANTGATCCUGT (SEQ ID NO: 23) with 2′-fluoro and 2′-O-methyl modifications (CAGGCUACGNCGTAGAGCAUCANTGATCCUGT; PEG, 2'-fluoro and 2'-O-methyl modifications, chemistry not fully specified) |  |  |  |  | did not show a significant decrease |  |  | completely blocked | less vessel growth; also recorded: affects vessels outgrowth and morphology |
| Cc1ccc(NC(=O)c2ccc(CN3CCN(C)CC3)cc2)cc1Nc1nccc(-c2cccnc2)n1 [Gleevec] |  |  | 4.2% |  |  |  |  |  |  |
